Experimental data as given in patent publication US20250382273A1 (INSTITUT NATIONAL DE LA SANTE ET DE LA RECHERCHE MEDICALE, priority 2022, published 2025).
Like-named read-outs stand apart in the source and are kept apart here.

Test system: M. tuberculosis H37Rv_gfp
Assay type: cell-based, Mycobacterium tuberculosis
[1] = in combination with pretomanid 20 ng·mL−1, 5 days at 37° C., […], read-out: EC50 H37Rv_gfp
[2] = in combination with pretomanid, unit inferred, read-out: average EC50 H37Rv_gfp

Row | Structure (SMILES) | EC50 [1] | EC50 (read-out: EC50 H37Rv_gfp) | EC50 [2]
1 | O=C(Nc1nc2ccc(F)cc2s1)[C@@H]1C2C=CC(C2)[C@@H]1C(=O)O (stereo partly shown) [Example 42, 3-[(6-fluoro-1,3-benzothiazol-2-yl)carbamoyl]bicyclo[2.2.1]hept-5-ene-2-carboxylic acid] | 1 to 5 µM | – | –
2 | O=C(Nc1nc2ccc(C(F)(F)F)cc2s1)[C@@H]1C2C=CC(C2)[C@@H]1C(=O)O (stereo partly shown) [Example 43, 3-[[6-(trifluoromethyl)-1,3-benzothiazol-2-yl]carbamoyl]bicyclo[2.2.1]hept-5-ene-2-carboxylic acid] | < 1 µM | – | –
3 | O=C(Nc1nc2ccc(OC(F)(F)F)cc2s1)[C@@H]1C2C=CC(C2)[C@@H]1C(=O)O (stereo partly shown) [Example 44, 3-[[6-(trifluoromethoxy)-1,3-benzothiazol-2-yl]carbamoyl]bicyclo[2.2.1]hept-5-ene-2-carboxylic acid] | < 1 µM | – | –
4 | O=C1[C@@H]2[C@H](C(=O)N1c1nc3ccc(OC(F)(F)F)cc3s1)[C@@H]1C=C[C@H]2C1 [Example 45, (1R,2S,6R,7S)-4-[6-(trifluoromethoxy)-1,3-benzothiazol-2-yl]-4-azatricyclo[5.2.1.02,6]dec-8-ene-3,5-dione] | 1 to 5 µM | – | –
5 | O=C(Nc1nc2ccc(Cl)cc2s1)[C@@H]1C2C=CC(C2)[C@@H]1C(=O)O (stereo partly shown) [Example 46, 3-[(6-chloro-1,3-benzothiazol-2-yl)carbamoyl]bicyclo[2.2.1]hept-5-ene-2-carboxylic acid] | 1 to 5 µM | – | –
6 | O=C(Nc1nc2ccc(Br)cc2s1)[C@@H]1C2C=CC(C2)[C@@H]1C(=O)O (stereo partly shown) [Example 47, 3-[(6-bromo-1,3-benzothiazol-2-yl)carbamoyl]bicyclo[2.2.1]hept-5-ene-2-carboxylic acid] | < 1 µM | – | –
7 | O=C(Nc1nc2cc(Br)ccc2s1)[C@@H]1C2C=CC(C2)[C@@H]1C(=O)O (stereo partly shown) [Example 48, 3-[(5-bromo-1,3-benzothiazol-2-yl)carbamoyl]bicyclo[2.2.1]hept-5-ene-2-carboxylic acid] | 1 to 5 µM | – | –
8 | O=C(Nc1nc2ccc(I)cc2s1)[C@@H]1C2C=CC(C2)[C@@H]1C(=O)O (stereo partly shown) [Example 49, 3-[(6-iodo-1,3-benzothiazol-2-yl)carbamoyl]bicyclo[2.2.1]hept-5-ene-2-carboxylic acid] | 1 to 5 µM | – | –
9 | O=C(Nc1nc2ccc(O)cc2s1)[C@@H]1C2C=CC(C2)[C@@H]1C(=O)O (stereo partly shown) [Example 50, 3-[(6-hydroxy-1,3-benzothiazol-2-yl)carbamoyl]bicyclo[2.2.1]hept-5-ene-2-carboxylic acid] | – | 10 to 20 µM | –
10 | O=C(Nc1nc2ccc(-c3ccccc3)cc2s1)[C@@H]1C2C=CC(C2)[C@@H]1C(=O)O (stereo partly shown) [Example 51] | < 1 µM | – | –
11 | O=C(Nc1nc2ccc(C3CCCCC3)cc2s1)[C@@H]1C2C=CC(C2)[C@@H]1C(=O)O (stereo partly shown) [Example 52, 3-[(6-cyclohexyl-1,3-benzothiazol-2-yl)carbamoyl]bicyclo[2.2.1]hept-5-ene-2-carboxylic acid] | < 1 µM | – | –
12 | Cc1ccc(-c2ccc3nc(NC(=O)[C@@H]4C5C=CC(C5)[C@@H]4C(=O)O)sc3c2)cc1 (stereo partly shown) [Example 53, 3-[[6-(p-tolyl)-1,3-benzothiazol-2-yl]carbamoyl]bicyclo[2.2.1]hept-5-ene-2-carboxylic acid] | < 1 µM | – | –
13 | COc1ccc(-c2ccc3nc(NC(=O)[C@@H]4C5C=CC(C5)[C@@H]4C(=O)O)sc3c2)cc1 (stereo partly shown) [Example 54, 3-[[6-(4-methoxyphenyl)-1,3-benzothiazol-2-yl]carbamoyl]bicyclo[2.2.1]hept-5-ene-2-carboxylic acid] | < 1 µM | – | 0.11 µM
14 | O=C(Nc1nc2ccc(-c3ccc(Cl)cc3)cc2s1)[C@@H]1C2C=CC(C2)[C@@H]1C(=O)O (stereo partly shown) [Example 55, 3-[[6-(4-chlorophenyl)-1,3-benzothiazol-2-yl]carbamoyl]bicyclo[2.2.1]hept-5-ene-2-carboxylic acid] | < 1 µM | – | –
15 | O=C(Nc1nc2ccc(-c3ccc(Cl)c(Cl)c3)cc2s1)[C@@H]1C2C=CC(C2)[C@@H]1C(=O)O (stereo partly shown) [Example 56, 3-[[6-(3,4-dichlorophenyl)-1,3-benzothiazol-2-yl]carbamoyl]bicycle [2.2.1]hept-5-ene-2-carboxylic acid] | < 1 µM | – | –
16 | O=C(Nc1nc2ccc(-c3ccccc3C(F)(F)F)cc2s1)[C@@H]1C2C=CC(C2)[C@@H]1C(=O)O (stereo partly shown) [Example 57, 3-[6-[[2-(trifluoromethyl)phenyl]-1,3-benzothiazol-2-yl]carbamoyl]bicyclo[2.2.1]hept-5-ene-2-carboxylic acid] | 1 to 5 µM | – | –
17 | O=C1C2C3C=CC(C3)C2C(=O)N1c1nc2ccc(-c3ccccc3C(F)(F)F)cc2s1 [Example 58, (1R,2S,6R,7S)-4-[6-[[2-(trifluoromethyl)phenyl]-1,3-benzothiazol-2-yl]-4-azatricyclo [5.2.1.02,6]dec-8-ene-3,5-dione] | 5 to 10 µM | – | –
18 | O=C(Nc1nc2ccc(-c3cccc(C(F)(F)F)c3)cc2s1)[C@@H]1C2C=CC(C2)[C@@H]1C(=O)O (stereo partly shown) [Example 59, 3-[[6-[3-(trifluoromethyl)phenyl]-1,3-benzothiazol-2-yl]carbamoyl]bicyclo[2.2.1]hept-5-ene-2-carboxylic acid] | < 1 µM | – | –

Row | Structure (SMILES) | EC50 [1] | EC50 (read-out: EC50 H37Rv_gfp) | EC50 [2]
19 | O=C(Nc1nc2ccc(-c3ccc(C(F)(F)F)cc3)cc2s1)[C@@H]1C2C=CC(C2)[C@@H]1C(=O)O (stereo partly shown) [Example 60, 3-[[6-[4-(trifluoromethyl)phenyl]-1,3-benzothiazol-2-yl]carbamoyl]bicyclo[2.2.1]hept-5-ene-2-carboxylic acid] | < 1 µM | – | 0.05 µM
20 | O=C1[C@@H]2[C@H](C(=O)N1c1nc3ccc(-c4ccc(C(F)(F)F)cc4)cc3s1)[C@@H]1C=C[C@H]2C1 [Example 61, (1R,2S,6R,7S)-4-[6-[4-(trifluoromethyl)phenyl]-1,3-benzothiazol-2-yl]-4-azatricyclo[5.2.1.02,6]dec-8-ene-3,5-dione] | < 1 µM | – | –
21 | O=C(Nc1nc2ccc(-c3ccc(OC(F)(F)F)cc3)cc2s1)[C@@H]1C2C=CC(C2)[C@@H]1C(=O)O (stereo partly shown) [Example 62, 3-[[6-[4-(trifluoromethoxy)phenyl]-1,3-benzothiazol-2-yl]carbamoyl]bicyclo[2.2.1]hept-5-ene-2-carboxylic acid] | < 1 µM | – | –
22 | O=C1[C@@H]2[C@H](C(=O)N1c1nc3ccc(-c4ccc(O)cc4)cc3s1)[C@@H]1C=C[C@H]2C1 [Example 63, (1R,2S,6R,7S)-4-[6-(4-hydroxyphenyl)-1,3-benzothiazol-2-yl]-4-azatricyclo[5.2.1.02,6]dec-8-ene-3,5-dione] | – | 5 to 10 µM | –
23 | O=C(Nc1nc2ccc(-c3ccncc3)cc2s1)[C@@H]1C2C=CC(C2)[C@@H]1C(=O)O (stereo partly shown) [Example 64, 3-[[6-(4-pyridyl)-1,3-benzothiazol-2-yl]carbamoyl]bicyclo[2.2.1]hept-5-ene-2-carboxylic acid] | 1 to 5 µM | – | –
24 | O=C1[C@@H]2C3C=CC(C3)[C@@H]2C(=O)N1c1nc2ccc(-c3ccc(F)nc3)cc2s1 [Example 65, (1R,2S,6R,7S)-4-[6-(6-fluoro-3-pyridyl)-1,3-benzothiazol-2-yl]-4-azatricyclo[5.2.1.02.6]dec-8-ene-3,5-dione] | 1 to 5 µM | – | –
25 | O=C(O)C1C2C=CC(C2)[C@H]1C(=O)Nc1nc2ccc(-c3ccc(C(F)(F)F)nc3)cc2s1 (stereo partly shown) [Example 66, 3-[[6-[6-(trifluoromethyl)-3-pyridyl]-1,3-benzothiazol-2-yl]carbamoyl]bicyclo [2.2.1]hept-5-ene-2-carboxylic acid] | < 1 µM | – | –
26 | O=C1[C@@H]2[C@H](C(=O)N1c1nc3ccc(-c4ccc(C(F)(F)F)nc4)cc3s1)[C@@H]1C=C[C@H]2C1 [Example 67, (1R,2S,6R,7S)-4-[6-[6-(trifluoromethyl)-3-pyridyl]-1,3-benzothiazol-2-yl]-4-azatricyclo [5.2.1.02,6]dec-8-ene-3,5-dione] | 1 to 5 µM | – | –
27 | O=C1[C@@H]2[C@H](C(=O)N1c1nc3ccc(-c4ccsc4)cc3s1)[C@@H]1C=C[C@H]2C1 [Example 68, (1R,2S,6R,7S)-4-[6-(3-thienyl)-1,3-benzothiazol-2-yl]-4-azatricyclo[5.2.1.02,6]dec-8-ene-3,5-dione] | 1 to 5 µM | – | –
28 | O=C(Nc1nc2ccc(-c3ccoc3)cc2s1)[C@@H]1C2C=CC(C2)[C@@H]1C(=O)O (stereo partly shown) [Example 69, 3-[[6-(3-furyl)-1,3-benzothiazol-2-yl]carbamoyl]bicyclo[2.2.1]hept-5-ene-2-carboxylic acid] | < 1 µM | – | –
29 | O=C1[C@@H]2[C@H](C(=O)N1c1nc3ccc(-c4ccoc4)cc3s1)[C@@H]1C=C[C@H]2C1 [Example 70, (1R,2S,6R,7S)-4-[6-(3-furyl)-1,3-benzothiazol-2-yl]-4-azatricyclo[5.2.1.02,6]dec-8-ene-3,5-dione] | 1 to 5 µM | – | –
30 | C#CCOc1ccc(-c2ccc3nc(N4C(=O)[C@@H]5[C@H](C4=O)[C@@H]4C=C[C@H]5C4)sc3c2)cc1 [Example 71, (1R,2S,6R,7S)-4-[6-(4-prop-2-ynoxyphenyl)-1,3-benzothiazol-2-yl]-4-azatricyclo[5.2.1.02,6]dec-8-ene-3,5-dione] | < 1 µM | – | –
31 | C#Cc1ccc2nc(N3C(=O)[C@@H]4[C@H](C3=O)[C@@H]3C=C[C@H]4C3)sc2c1 [Example 72, (1R,2S,6R,7S)-4-(6-ethynyl-1,3-benzothiazol-2-yl)-4-azatricyclo[5.2.1.02,6]dec-8-ene-3,5-dione] | 1 to 5 µM | – | –
32 | C#CCOc1ccc2nc(N3C(=O)[C@@H]4[C@H](C3=O)[C@@H]3C=C[C@H]4C3)sc2c1 [Example 73, (1R,2S,6R,7S)-4-(6-prop-2-ynoxy-1,3-benzothiazol-2-yl)-4-azatricyclo[5.2.1.02,6]dec-8-ene-3,5-dione] | < 1 µM | – | –
33 | O=C1[C@@H]2C3C=CC(C3)[C@@H]2C(=O)N1c1nc2c(O)cccc2s1 [Example 74] | < 1 µM | – | –
34 | C#CCOc1cccc2sc(NC(=O)[C@@H]3C4C=CC(C4)[C@@H]3C(=O)O)nc12 (stereo partly shown) [Example 75, 3-[(4-prop-2-ynoxy-1,3-benzothiazol-2-yl)carbamoyl]bicyclo[2.2.1]hept-5-ene-2-carboxylic acid] | < 1 µM | – | –
35 | C#CCOc1cccc2sc(N3C(=O)[C@@H]4[C@H](C3=O)[C@@H]3C=C[C@H]4C3)nc12 [Example 76, (1R,2S,6R,7S)-4-(4-prop-2-ynoxy-1,3-benzothiazol-2-yl)-4-azatricyclo[5.2.1.02,6]dec-8-ene-3,5-dione] | 10 to 20 µM | – | –
